“And” between values parts separate entries of the source, which are not always exact repeats. Identical values can stand only once.
What was measured:
Type in all cases: biochemical
DPPH· scavenging = conditions: mean ± SD, n = 3
[1] = ABTS·+ decolourisation capacity; conditions: mean ± SD, n = 3
Method: Fast colourimetric methods were slightly modified for the in vitro assessment of DPPH· scavenging ([19]), ABTS·+ decolourisation capacity ([20]), and total antioxidant capacity of FRAP ([21]). The stock solutions of derivatisation reagents were diluted as follows before measurement: DPPH was diluted with absolute ethanol until the absorbance was 0.8 ± 0.05 at λ = 517 nm. ABTS working solution was prepared with phosphate buffer (0.2 M, pH 7.4) to display absorbance of 0.8 ± 0.05 at λ = 729 nm, based on a previous study ([22]). The FRAP solution was prepared according to the instructions of the FRAP kit. Absorbances were measured using an automatic microplate reader (Molecular Group Ltd., USA), and all analyses were performed using 96-well plates. All measurements were performed in triplicate, and Trolox was used as a positive control.
For ABTS·+ decolourisation capacity, 100 μl of ABTS working solution was mixed with 200 μl of sample solution, and the absorbance was recorded after 10 min at 729 nm. Phosphate buffer (0.2 M, pH 7.4) was used as a negative control.
DPPH· and ABTS·+ radical scavenging activities of the tested sample were both calculated using the following formula:
% inhibition = (A control − A sample)/A control × 100
Where A control and A sample represent the absorbance of the control and test samples, respectively. The IC50 was calculated graphically from the dose-inhibition curves.

[2] = FRAP total antioxidant capacity; conditions: lower part of sheet (compound series);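 further: colourimetric FRAP kit assay read as absorbance in 96-well plates, values as mM FeSO4 via standard curve, EC1 being sample concentration matching 1.0 mmol/L FeSO4, Trolox positive control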
COX-2 = biological target: T1, COX-2 (Homo sapiens, UniProt P35354); test: Anti-COX-2 assay (COX-2 Inhibitor Screening Kit); conditions: for COX-2 inhibition: single replicates
T1 construct: purchased Beyotime S0168
T1 sequence (P35354 18-604): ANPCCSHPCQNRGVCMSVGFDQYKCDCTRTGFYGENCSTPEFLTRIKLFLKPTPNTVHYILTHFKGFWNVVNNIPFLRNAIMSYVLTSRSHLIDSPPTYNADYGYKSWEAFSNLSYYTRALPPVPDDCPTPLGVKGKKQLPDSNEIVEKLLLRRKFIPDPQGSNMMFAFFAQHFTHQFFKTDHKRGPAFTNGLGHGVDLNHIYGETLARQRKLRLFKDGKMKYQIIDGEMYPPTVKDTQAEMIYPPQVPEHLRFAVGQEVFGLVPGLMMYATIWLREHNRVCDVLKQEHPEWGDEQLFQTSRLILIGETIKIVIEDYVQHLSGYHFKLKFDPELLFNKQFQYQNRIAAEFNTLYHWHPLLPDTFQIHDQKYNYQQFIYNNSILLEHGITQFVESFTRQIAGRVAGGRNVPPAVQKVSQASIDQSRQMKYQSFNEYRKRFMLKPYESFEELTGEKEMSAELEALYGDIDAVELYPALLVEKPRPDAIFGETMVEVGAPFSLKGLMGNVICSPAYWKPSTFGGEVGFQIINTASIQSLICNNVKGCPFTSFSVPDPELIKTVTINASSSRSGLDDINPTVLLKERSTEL

[3] = Fluorescent AGEs formation in a BSA-fructose/glucose system; conditions: for inhibition of fluorescent AGEs formation (BSA-抗糖化), single replicate: individual replicate; for inhibition of fluorescent AGEs formation (BSA-抗糖化), 平均 (mean): mean of 3 replicates; for IC50: mean ± SD, n = 3, read-out: BSA-glycation IC50
Method: Glycated protein was prepared in vitro by incubating BSA in the presence of D-glucose (GLC) and D-fructose (FRC). The DOF extract and specific standards were dissolved in DMSO:water (1:4). […] The assay was performed in triplicate, and AG was used as a positive control. The percentage inhibition of fluorescent AGE formation was calculated using the following equation: […] Where IF sample is fluorescence intensity in the presence of samples and BSA, IF sample control is fluorescence intensity in the presence of samples without BSA, IF control is fluorescence intensity without samples, and IF blank control is fluorescence intensity without samples and BSA.

SMILES: O=c1cc(-c2ccc(O)cc2)oc2c(C3OCC(O)C(O)C3O)c(O)c(C3OCC(O)C(O)C3O)c(O)c12 [compound 26, Apigenin-6-C-α-L-arabinoside-8-C-β-D-xyloside]
- IC50 (DPPH· scavenging): > 5000 µM
- IC50 [1]: 80.36 ± 0.77 µM
- FRAP EC1 [2]: >5000 µM
- COX-2 inhibition (in words) (COX-2): no inhibitory effects
- inhibition of fluorescent AGEs formation (BSA-抗糖化), single replicate ([3]; 15.625 µM, listed as T10, 15.625 µM): -0.15% and 0.19% and 0.09%
- inhibition of fluorescent AGEs formation (BSA-抗糖化), 平均 (mean) ([3]; 15.625 µM): 0.045%
- inhibition of fluorescent AGEs formation (BSA-抗糖化), single replicate ([3]; 31.25 µM, listed as T10, 31.25 µM): 6.49% and 8.31% and 6.26%
- inhibition of fluorescent AGEs formation (BSA-抗糖化), 平均 (mean) ([3]; 31.25 µM): 7.02%
- inhibition of fluorescent AGEs formation (BSA-抗糖化), single replicate ([3]; 62.5 µM, listed as T10, 62.5 µM): 15.98% and 16.92% and 15.72%
- inhibition of fluorescent AGEs formation (BSA-抗糖化), 平均 (mean) ([3]; 62.5 µM): 16.21%
- inhibition of fluorescent AGEs formation (BSA-抗糖化), single replicate ([3]; 125 µM, listed as T10, 125 µM): 27.64% and 28.36% and 29.90%
- inhibition of fluorescent AGEs formation (BSA-抗糖化), 平均 (mean) ([3]; 125 µM): 28.63%
- inhibition of fluorescent AGEs formation (BSA-抗糖化), single replicate ([3]; 250 µM, listed as T10, 250 µM): 48.76% and 48.06% and 47.15%
- inhibition of fluorescent AGEs formation (BSA-抗糖化), 平均 (mean) ([3]; 250 µM): 47.99%
- inhibition of fluorescent AGEs formation (BSA-抗糖化), single replicate ([3]; 500 µM, listed as T10, 500 µM): 67.27% and 67.99% and 65.66%
- inhibition of fluorescent AGEs formation (BSA-抗糖化), 平均 (mean) ([3]; 500 µM): 66.98%
- inhibition of fluorescent AGEs formation (BSA-抗糖化), single replicate ([3]; 1000 µM, listed as T10, 1000 µM): 82.36% and 81.32% and 81.69%
- inhibition of fluorescent AGEs formation (BSA-抗糖化), 平均 (mean) ([3]; 1000 µM): 81.79%
- inhibition of fluorescent AGEs formation (BSA-抗糖化), single replicate ([3]; 2000 µM, listed as T10, 2000 µM): 90.52% and 90.97% and 89.78%
- inhibition of fluorescent AGEs formation (BSA-抗糖化), 平均 (mean) ([3]; 2000 µM): 90.42%
- inhibition of fluorescent AGEs formation (BSA-抗糖化), single replicate ([3]; 4000 µM (series head 'T9 4000µM', 2-fold dilutions), listed as T10): 95.10% and 95.64% and 95.09%
- inhibition of fluorescent AGEs formation (BSA-抗糖化), 平均 (mean) ([3]; 4000 µM): 95.27%
- IC50 [3]: 273 ± 4.7 µM

SMILES: O=c1c(O[C@@H]2O[C@H](CO)[C@@H](O)[C@H](O)[C@H]2O)c(-c2ccc(O)cc2)oc2cc(O)cc(O)c12 [compound 31, Astragalin]
- IC50 (DPPH· scavenging): > 5000 µM
- IC50 [1]: 34.31 ± 0.1 µM
- FRAP EC1 [2]: >5000 µM
- COX-2 inhibition (in words) (COX-2): no inhibitory effects
- COX-2 inhibition (COX-2; 3.125 μM, listed as T13, 3.125 µM): 9.26% and 13.01% and -4.90%
- COX-2 inhibition (COX-2; 6.25 μM, listed as T13, 6.25 µM): 7.55% and 7.65% and -2.11%
- COX-2 inhibition (COX-2; 12.5 μM, listed as T13, 12.5 µM): 5.53% and -11.45% and -30.89%
- COX-2 inhibition (COX-2; 25 μM, listed as T13, 25 µM): -6.59% and -8.12% and -23.58%
- COX-2 inhibition (COX-2; 50 μM, listed as T13, 50 µM): -22.46% and -22.25% and -29.37%
- COX-2 inhibition (COX-2; 100 μM, listed as T13, 100 µM): -33.58% and -17.93% and -41.32%
- COX-2 inhibition (COX-2; 200 μM, listed as T13, 200 µM): -24.47% and -35.20% and -49.99%
- inhibition of fluorescent AGEs formation (BSA-抗糖化), single replicate ([3]; 15.625 µM, listed as T13, 15.625 µM): 3.97% and 2.43% and 3.28%
- inhibition of fluorescent AGEs formation (BSA-抗糖化), 平均 (mean) ([3]; 15.625 µM): 3.23%
- inhibition of fluorescent AGEs formation (BSA-抗糖化), single replicate ([3]; 31.25 µM, listed as T13, 31.25 µM): 6.47% and 9.23% and 6.65%
- inhibition of fluorescent AGEs formation (BSA-抗糖化), 平均 (mean) ([3]; 31.25 µM): 7.45%
- inhibition of fluorescent AGEs formation (BSA-抗糖化), single replicate ([3]; 62.5 µM, listed as T13, 62.5 µM): 16.61% and 18.46% and 18.15%
- inhibition of fluorescent AGEs formation (BSA-抗糖化), 平均 (mean) ([3]; 62.5 µM): 17.74%
- inhibition of fluorescent AGEs formation (BSA-抗糖化), single replicate ([3]; 125 µM, listed as T13, 125 µM): 25.98% and 33.83% and 29.94%
- inhibition of fluorescent AGEs formation (BSA-抗糖化), 平均 (mean) ([3]; 125 µM): 29.92%
- inhibition of fluorescent AGEs formation (BSA-抗糖化), single replicate ([3]; 250 µM, listed as T13, 250 µM): 39.66% and 53.40% and 48.31%
- inhibition of fluorescent AGEs formation (BSA-抗糖化), 平均 (mean) ([3]; 250 µM): 47.12%
- inhibition of fluorescent AGEs formation (BSA-抗糖化), single replicate ([3]; 500 µM, listed as T13, 500 µM): 65.95% and 67.35% and 67.23%
- inhibition of fluorescent AGEs formation (BSA-抗糖化), 平均 (mean) ([3]; 500 µM): 66.84%
- inhibition of fluorescent AGEs formation (BSA-抗糖化), single replicate ([3]; 1000 µM, listed as T13, 1000 µM): 79.55% and 78.97% and 78.39%
- inhibition of fluorescent AGEs formation (BSA-抗糖化), 平均 (mean) ([3]; 1000 µM): 78.97%
- inhibition of fluorescent AGEs formation (BSA-抗糖化), single replicate ([3]; 2000 µM, listed as T13, 2000 µM): 89.49% and 89.99% and 89.93%
- inhibition of fluorescent AGEs formation (BSA-抗糖化), 平均 (mean) ([3]; 2000 µM): 89.80%
- inhibition of fluorescent AGEs formation (BSA-抗糖化), single replicate ([3]; 4000 µM (series head 'T9 4000µM', 2-fold dilutions), listed as T13): 94.89% and 93.91% and 94.80%
- inhibition of fluorescent AGEs formation (BSA-抗糖化), 平均 (mean) ([3]; 4000 µM): 94.53%
- IC50 [3]: 276 ± 33 µM
